Assay results published in publication PMC2797370 (2009).
pIC50: −log10 of the molar value.

Biological target: T1, prostaglandin endoperoxide synthase-2 (PGHS-2) (Mus musculus, UniProt Q05769)
T1 sequence (Q05769 18-604): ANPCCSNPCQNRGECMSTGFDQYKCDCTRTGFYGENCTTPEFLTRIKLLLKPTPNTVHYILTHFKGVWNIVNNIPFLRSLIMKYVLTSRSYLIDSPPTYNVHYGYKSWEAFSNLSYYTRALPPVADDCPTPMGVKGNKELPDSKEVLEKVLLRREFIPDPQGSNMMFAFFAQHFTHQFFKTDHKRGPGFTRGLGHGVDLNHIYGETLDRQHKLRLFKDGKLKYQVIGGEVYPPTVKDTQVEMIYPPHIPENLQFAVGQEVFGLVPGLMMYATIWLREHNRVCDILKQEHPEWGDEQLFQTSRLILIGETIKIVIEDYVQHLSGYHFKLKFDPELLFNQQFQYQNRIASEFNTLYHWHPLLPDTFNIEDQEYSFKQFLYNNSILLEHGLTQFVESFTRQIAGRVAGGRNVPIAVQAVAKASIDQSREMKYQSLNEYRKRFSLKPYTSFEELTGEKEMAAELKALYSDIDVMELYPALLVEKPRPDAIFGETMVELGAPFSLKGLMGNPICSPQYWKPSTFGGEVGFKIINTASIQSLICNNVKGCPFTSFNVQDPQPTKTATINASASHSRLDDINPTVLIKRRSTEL
Experiment: oxygen uptake assay of purified enzyme
Format: biochemical

Compound: CCCCC/C=C\C/C=C\C/C=C\C/C=C\CCCC(=O)Nc1cccc(O)c1 [3-HPAA, N-(3-Hydroxyphenyl)eicosa-5,8,11,14-tetraenamide]
- pIC50: 5.80
